# From patent US20260053764A1, “COMPOSITION FOR PREVENTING DETERIORATION IN COGNITIVE FUNCTION AND/OR IMPROVING COGNITIVE FUNCTION” (PHARMA FOODS INTERNATIONAL CO., LTD., priority 2020, published 2026)
# Test system: cognitive function of a human
# Assay: RBANS neuropsychological test in clinical tests A and B
# Assay type: in vivo
# Design: Attention / Delayed memory / Immediate memory / Language: scale not given here
# Details: for Attention / Immediate memory / Language / Visual spatial configuration / Delayed memory: mean ± SD; for scores regarding delayed playback, GABA group compared to the placebo group / scores regarding visual space, GABA group compared to the placebo group: after twelve weeks of ingestion
# Description: In addition, the RBANS neuropsychological test (RBANS: Repeatable Battery for the Assessment of Neuropsychological Status) is one of the neuropsychological examinations that have been standardized the a in United States, which is neuropsychological test exercise (examination battery) that takes a short time (about 30 minutes) and can be repeatedly assessed. The RBANS neuropsychological test can assess five cognitive domains, which are immediate memory, visual spatial/constructional, language, attention and delayed memory.
# Two types of placebo-controlled randomized double-blind two-group parallel comparison tests were carried out as clinical tests. […] Specifically, capsules comprising 100 mg of dextrin per capsule were used as the placebo food.
# The screening examination was carried out to select 60 subjects for each test (a total of 120 subjects). MMSE (Mini Mental State Examination) is an examination for assessing the degree of progression of dementia or the like based on the score thereof with 30 as the perfect score, wherein dementia is suspected with a score of 23 or lower.
# The total of 120 subjects were randomly divided into test A active group, test A placebo group, test B active group and test B placebo group with 30 subjects in each group. Each subject of the test A active group ingested two capsules of the active food, each subject of the test A placebo group ingested two capsules of the placebo food, each subject of the test B active group ingested one capsule of the active food and each subject of the test B placebo group ingested one capsule of the placebo food.
# Each subject followed the schedule shown in the table below and ingested one or two of the assigned capsules together with water for 12 weeks from two weeks after the initial screening examination. All subjects had no particular instruction during the ingestion period and freely took their meals.
# As shown with ● in the test schedule in Table 1, Cognitrax was carried out a total of five times, which are upon screening, before starting test food sample ingestion, after four weeks of ingestion, after eight weeks of ingestion and after twelve weeks of ingestion, and the RBANS neuropsychological test was carried out a total of two times, which are before staring test food ingestion and after twelve weeks of ingestion.
# [1] = test A 200 mg, before ingestion
# [2] = test B 100 mg, before ingestion
structure (smiles),measurement,setting,value
"NCCCC(=O)O [GABA, γ-aminobutyric acid]",Delayed memory: difference between active food and placebo food groups,"test A 200 mg, 12 w",9.4
same,Immediate memory: difference between active food and placebo food groups,"test A 200 mg, 12 w",13.1
same,Language: difference between active food and placebo food groups,"test A 200 mg, 12 w",5.0
same,RBANS domain (row head blank): difference between active food and placebo food groups,"test A 200 mg, 12 w",5.6
same,Visual space: difference between active food and placebo food groups,"test A 200 mg, 12 w",3.1
same,Attention,"test A 200 mg, 12 w",53.0 ± 15.2
same,Immediate memory,"test A 200 mg, 12 w",47.6 ± 14.7
same,Language,"test A 200 mg, 12 w",54.2 ± 9.5
same,Visual spatial configuration,"test A 200 mg, 12 w",48.8 ± 13.0
same,Delayed memory: difference between active food and placebo food groups,[1],−1.6
same,Immediate memory: difference between active food and placebo food groups,[1],0.8
same,Language: difference between active food and placebo food groups,[1],2.3
same,RBANS domain (row head blank): difference between active food and placebo food groups,[1],−0.8
same,Visual space: difference between active food and placebo food groups,[1],−0.2
same,Attention,[1],44.5 ± 17.6
same,Delayed memory,[1],39.8 ± 17.1
same,Immediate memory,[1],42.3 ± 16.6
same,Language,[1],48.4 ± 8.5
same,Visual spatial configuration,[1],47.7 ± 14.7
same,"scores regarding delayed playback, GABA group compared to the placebo group",test A,significant improvement
same,"scores regarding visual space, GABA group compared to the placebo group",test A,significant improvement
same,Attention: difference between active food and placebo food groups,"test B 100 mg, 12 w",−2.2
same,Delayed memory: difference between active food and placebo food groups,"test B 100 mg, 12 w",11.9
same,Immediate memory: difference between active food and placebo food groups,"test B 100 mg, 12 w",3.5
same,Language: difference between active food and placebo food groups,"test B 100 mg, 12 w",3.9
same,Visual space: difference between active food and placebo food groups,"test B 100 mg, 12 w",9.9
same,Delayed memory,"test B 100 mg, 12 w",46.9 ± 11.3
same,Immediate memory,"test B 100 mg, 12 w",43.9 ± 14.4
same,Language,"test B 100 mg, 12 w",51.6 ± 8.7
same,Visual spatial configuration,"test B 100 mg, 12 w",48.2 ± 10.3
same,Attention: difference between active food and placebo food groups,[2],−5.5
same,Delayed memory: difference between active food and placebo food groups,[2],1.2
same,Immediate memory: difference between active food and placebo food groups,[2],−0.9
same,Language: difference between active food and placebo food groups,[2],−2.1
same,Visual space: difference between active food and placebo food groups,[2],1.0
same,Attention,[2],43.4 ± 11.6
same,Delayed memory,[2],41.7 ± 15.3
same,Immediate memory,[2],42.8 ± 13.4
same,Language,[2],47.8 ± 11.6
same,Visual spatial configuration,[2],48.3 ± 8.8
same,"scores regarding delayed playback, GABA group compared to the placebo group",test B,significant improvement
same,"scores regarding visual space, GABA group compared to the placebo group",test B,significant improvement
